Read-outs that look alike come from different tables or passages of the source. Values belong to the compound of their own block, whether it stands above or below them.
Experiments:
recombinant His-CHK1 = molecular target: T1, recombinant His-CHK1 (Homo sapiens, UniProt O14757); assay: CHK1 SPA Assay; type: biochemical; conditions: CDC25C biotinylated peptide substrate, 1 uM ATP
T1 construct: His-CHK1, In House Lot P976, MW ˜30 KDa, stored at −80° C; fused on or other part: His tag
T1 sequence (O14757 1-265 limits assumed): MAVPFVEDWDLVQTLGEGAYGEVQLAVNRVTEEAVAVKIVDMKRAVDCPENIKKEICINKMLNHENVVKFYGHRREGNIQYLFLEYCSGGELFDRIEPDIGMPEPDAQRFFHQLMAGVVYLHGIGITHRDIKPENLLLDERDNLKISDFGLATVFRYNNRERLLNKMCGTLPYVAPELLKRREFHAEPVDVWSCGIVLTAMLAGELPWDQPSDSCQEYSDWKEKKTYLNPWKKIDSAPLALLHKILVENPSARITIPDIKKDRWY

CDK2/cyclin A = molecular target: T2, CDK2/cyclin A (Homo sapiens, UniProt P24941); assay: CDK2 Assay (in vitro kinase assay, cyclin A-dependent); type: biochemical
T2 construct: made in house; host or cells: SF9 cells (recombinant baculovirus, pFASTBAC)

[1] = read-out: CDK2/cyclin A IC50, SPA, biotinylated Histone H1 peptide substrate
[2] = SPA, biotinylated Histone H1 peptide substrate, read-out: CDK2/cyclin A IC50

IC50 (recombinant His-CHK1; CHK1 IC50 [nM]): 563 nM
SMILES: Cn1cc(-c2cnn3c(N)c(-c4ccccc4)c(C4CCCNC4)nc23)cn1 (centres unmarked)

SMILES: Cn1cc(-c2cnn3c(N)c(C(=O)Cc4ccccc4)c(C4CCCNC4)nc23)cn1 (centres unmarked)
IC50 (CDK2/cyclin A): 103 nM
IC50 (recombinant His-CHK1; read-out: CHK1 IC50): 47 nM

melting point: 167 to 170 °C
IC50 (recombinant His-CHK1; read-out: CHK1 IC50): 22600 nM
SMILES: Nc1c(-c2ccccc2)c(N2CC[C@H](N)C2)nc2c(Br)cnn12

SMILES: Cc1nc2c(Br)cnn2c(N)c1CCO
IC50 (CDK2/cyclin A; [1]): 69 nM
IC50 (recombinant His-CHK1; read-out: CHK1 IC50): 29100 nM

SMILES: CCC(=O)c1c(C2CCCNC2)nc2c(-c3cnn(C)c3)cnn2c1N (centres unmarked)
IC50 (CDK2/cyclin A): 38 nM
IC50 (recombinant His-CHK1; read-out: CHK1 IC50): 12 nM

IC50 (recombinant His-CHK1; CHK1 IC50 [nM]): 86 nM
SMILES: Cn1cc(-c2cnn3c(N)c(-c4cccs4)c(C4CCCNC4)nc23)cn1 (centres unmarked)

IC50 (recombinant His-CHK1; read-out: CHK1 IC50): 18 nM
SMILES: CC(O)c1c(C2CCCNC2)nc2c(-c3cnn(C)c3)cnn2c1N (single isomer, unassigned) [drawing 213]

SMILES: Cn1cc(-c2cnn3c(N)c(C#N)c(C4CCCNC4)nc23)cn1 (centres unmarked)
IC50 (CDK2/cyclin A; [2]): 1720 nM
IC50 (recombinant His-CHK1; CHK1 IC50 [nM]): 102 nM

SMILES: CNC(=O)Cc1c(C)nc2c(Br)cnn2c1N
IC50 (CDK2/cyclin A; [1]): 41300 nM
IC50 (recombinant His-CHK1; read-out: CHK1 IC50): > 50000 nM

IC50 (recombinant His-CHK1; read-out: CHK1 IC50): 59 nM
SMILES: CC(=NO)c1c(C2CCCNC2)nc2c(-c3cnn(C)c3)cnn2c1N (centres unmarked)

SMILES: Cn1cc(-c2cnn3c(N)c(-c4cnn(CCO)c4)c(C4CCCNC4)nc23)cn1 (centres unmarked)
IC50 (CDK2/cyclin A): 11700 nM
IC50 (recombinant His-CHK1; read-out: CHK1 IC50): 114 nM

IC50 (recombinant His-CHK1; CHK1 IC50 [nM]): 52 nM
SMILES: COC/C=C/c1c(C2CCCNC2)nc2c(-c3cnn(C)c3)cnn2c1N (centres unmarked)

SMILES: CC#Cc1c(C2CCCNC2)nc2c(-c3cnn(C)c3)cnn2c1N (centres unmarked)
IC50 (CDK2/cyclin A; [2]): 1290 nM
IC50 (recombinant His-CHK1; CHK1 IC50 [nM]): 44 nM

SMILES: Cc1nc2c(Br)cnn2c(N)c1CCC(N)=O
IC50 (CDK2/cyclin A; [1]): 882 nM
IC50 (recombinant His-CHK1; read-out: CHK1 IC50): > 50000 nM

IC50 (recombinant His-CHK1; read-out: CHK1 IC50): 148 nM
SMILES: CC(O)c1c(C2CCCNC2)nc2c(-c3cnn(C)c3)cnn2c1N (single isomer, unassigned) [drawing 212]

SMILES: Cn1cc(-c2cnn3c(N)c(-c4cccnc4)c(C4CCCNC4)nc23)cn1 (centres unmarked)
IC50 (CDK2/cyclin A; [2]): 1480 nM
IC50 (recombinant His-CHK1; CHK1 IC50 [nM]): 507 nM

SMILES: Cn1cc(-c2cnn3c(N)c(-c4ccsc4)c(C4CCCNC4)nc23)cn1 (centres unmarked)
IC50 (CDK2/cyclin A; [2]): 2150 nM
IC50 (recombinant His-CHK1; CHK1 IC50 [nM]): 160 nM

SMILES: Cc1nc2c(Br)cnn2c(N)c1CC(N)=O
IC50 (CDK2/cyclin A; [1]): 1190 nM
IC50 (recombinant His-CHK1; read-out: CHK1 IC50): 4750 nM

SMILES: CCc1c(N2CC[C@H](N)C2)nc2c(Br)cnn2c1N
IC50 (CDK2/cyclin A; [1]): 852 nM
IC50 (recombinant His-CHK1; read-out: CHK1 IC50): 845 nM

SMILES: Cn1cc(-c2c(C3CCCNC3)nc3c(-c4cnn(C)c4)cnn3c2N)cn1 (centres unmarked)
IC50 (CDK2/cyclin A; [2]): 224000 nM
IC50 (recombinant His-CHK1; CHK1 IC50 [nM]): 102 nM

SMILES: C=C(C)c1c(C2CCCNC2)nc2c(-c3cnn(C)c3)cnn2c1N (centres unmarked)
IC50 (CDK2/cyclin A): 201 nM
IC50 (recombinant His-CHK1; read-out: CHK1 IC50): 67 nM

IC50 (recombinant His-CHK1; CHK1 IC50 [nM]): 340 nM
SMILES: Cn1cc(-c2cnn3c(N)c(-c4ccoc4)c(C4CCCNC4)nc23)cn1 (centres unmarked)

SMILES: Cn1cc(-c2cnn3c(N)c(C4CC4)c(C4CCCNC4)nc23)cn1 (centres unmarked)
IC50 (CDK2/cyclin A; [2]): 167 nM
IC50 (recombinant His-CHK1; CHK1 IC50 [nM]): 17 nM

SMILES: CCc1c(C2CCCNC2)nc2c(-c3cnn(C)c3)cnn2c1N (centres unmarked)
IC50 (CDK2/cyclin A; [2]): 334 nM
IC50 (recombinant His-CHK1; CHK1 IC50 [nM]): 31 nM

SMILES: Cc1c(N2CC[C@H](N)C2)nc2c(Br)cnn2c1N
IC50 (CDK2/cyclin A; [1]): 754 nM
IC50 (recombinant His-CHK1; read-out: CHK1 IC50): 1580 nM

SMILES: Cn1cc(-c2cnn3c(N)c(-c4ccncc4)c(C4CCCNC4)nc23)cn1 (centres unmarked)
IC50 (CDK2/cyclin A; [2]): 11300 nM
IC50 (recombinant His-CHK1; CHK1 IC50 [nM]): 229 nM

SMILES: CC(=O)c1c(C2CCCNC2)nc2c(-c3cnn(C)c3)cnn2c1N (centres unmarked)
IC50 (CDK2/cyclin A): 33 nM
IC50 (recombinant His-CHK1; read-out: CHK1 IC50): 8 nM
